In article PMC11923837, “Proline-Modified (RW)n Peptides: Enhancing the Antimicrobial Efficacy and Selectivity against Multidrug-Resistant Pathogens” (ACS Omega, 2025):
Where two headings read alike, the source gives them in different places. No end group written: not given here.

Legend:
[1] = test system: Acinetobacter baumannii ATCC 19606; test: microbe, parasite or virus in culture; details: for MIC: Acinetobacter baumannii, ATCC19606, 18 h, read-out: MIC against Ab; for MIC, Ab (Table 1S): supplement Table 1S, unit not given (main-text tables: μg/mL), capital letter component 95 mg
Procedure: (§1) Antimicrobial activity was evaluated using the Community for Open Antimicrobial Drug Discovery (CO-ADD) screening platform. Minimum inhibitory concentrations (MICs) were determined against the following five bacterial strains: Escherichia coli (E. coli) ATCC 25922, Klebsiella pneumoniae ATCC 700603, Acinetobacter baumannii ATCC 19606, Pseudomonas aeruginosa ATCC 27853, and Staphylococcus aureus ATCC 43300.
(§2) Bacteria were cultured in cation-adjusted Mueller–Hinton broth (CAMHB) at 37 °C overnight. Cultures were diluted 40-fold in fresh broth and incubated at 37 °C for 1.5–3 h. Mid-log phase cultures were then diluted and added to the compound-containing plates, giving a final cell density of 5 × 10^5 CFU/mL in a total volume of 50 μL. Plates were incubated at 37 °C for 18 h without shaking.
(§3) Bacterial growth inhibition was determined by measuring the absorbance at 600 nm (OD600) using a Tecan M1000 Pro monochromator plate reader. The percentage of growth inhibition was calculated using negative (media only) and positive (bacteria without inhibitors) controls. Significance was determined by modified Z scores calculated using the median and MAD of the samples on the same plate. Samples with inhibition values above 80% and Z scores above 2.5 for either replicate were classified as active.
(§4) The fractional inhibitory concentration (FIC) index was calculated to determine synergy, additivity, or antagonism.
(§5) Colistin and VAN were used as positive bacterial inhibitor standards for Gram-negative and Gram-positive bacteria, respectively. The quality control (QC) of the assays was determined by the antimicrobial controls and the Z’ factor (using positive and negative controls).
(§6) Percentage growth inhibition was calculated using negative (media only) and positive (bacteria without inhibitors) controls. Modified Z scores were used to determine the significance of the inhibition values. Samples with inhibition values of above 80% and Z scores of above 2.5 for either replicate were classified as active. Data are presented as the mean ± standard deviation from at least three independent experiments.

[2] = test system: Escherichia coli (E. coli) ATCC 25922; test: microbe, parasite or virus in culture; details: for MIC: Escherichia coli, ATCC25922, 18 h, read-out: MIC against E. coli; for MIC, Ec (Table 1S): supplement Table 1S, unit not given (main-text tables: μg/mL), capital letter component 95 mg
Procedure: as §1, §2, §3, §4, §5, §6

[3] = test system: Pseudomonas aeruginosa ATCC 27853; test: microbe, parasite or virus in culture; details: for MIC: Pseudomonas aeruginosa, ATCC27853, 18 h, read-out: MIC against Pa; for MIC, Pa (Table 1S): supplement Table 1S, unit not given (main-text tables: μg/mL), capital letter component 95 mg
Procedure: as §1, §2, §3, §4, §5, §6

[4] = test system: Staphylococcus aureus ATCC 43300 (MRSA); test: microbe, parasite or virus in culture; details: for MIC: Staphylococcus aureus, read-out: MIC against MRSA; for MIC, Sa (Table 1S): supplement Table 1S, unit not given (main-text tables: μg/mL), capital letter component 95 mg
Procedure: as §1, §2, §3, §4, §5, §6

[5] = test system: human embryonic kidney (HEK293) cells; test: Cytotoxicity, resazurin reduction assay; type: cell-based
Procedure: (§7) Cytotoxicity was evaluated using human embryonic kidney (HEK293) and human red blood cells (RBCs). HEK293 cells were cultured in DMEM supplemented with 10% FBS. Cells were seeded in 384-well plates and incubated with peptides for 24 h. Cell viability was assessed using the resazurin reduction assay. Hemolysis assays were performed using fresh human RBCs incubated with peptides for 1 h at 37 °C.

[6] = test system: human red blood cells (RBCs); test: Hemolysis assay; type: cell-based
Procedure: as §7

[7] = test system: Klebsiella pneumoniae ATCC 700603; test: microbe, parasite or virus in culture; details: for MIC against Kp: ATCC 700603, 18 h; for MIC, Kp (Table 1S): supplement Table 1S, unit not given (main-text tables: μg/mL), capital letter component 95 mg, minor letter component 5 mg
Procedure: as §1, §2, §3, §4, §5, §6

[8] = test system: Gram-positive and Gram-negative bacteria; test: Structure-activity summary: antimicrobial activity (Table 5); type: cell-based; details: summary in words
[9] = test system: human cells; type: cell-based
[10] = summary in words, Table 5; earlier biophysical studies ref 20; cited from earlier work
From the text: Table 5 Structure–Activity Relationships of (RW)n Peptides ^a | column: Thermal stability

[11] = S. aureus ATCC 43300, CAMHB, 5 × 10^5 CFU/mL, 37 °C, 18 h, OD600, mixtures: capital letter component 95 mg, minor letter component 5 mg

| Molecule | MIC, Ab (Table 1S) ([1]; minor letter component 5 mg) | MIC, Ec (Table 1S) ([2]; minor letter component 5 mg) | MIC, Pa (Table 1S) ([3]; minor letter component 5 mg) | MIC, Sa (Table 1S) ([4]; minor letter component 5 mg) | MIC, Hk (Table 1S) [5] | MIC, Hm (Table 1S) [6] | MIC against Ab ([1]; ATCC 19606, 18 h) | MIC against E. coli ([2]; ATCC 25922, 18 h) | MIC against Kp [7] | MIC, Kp (Table 1S) [7] | MIC against Pa ([3]; ATCC 27853, 18 h) | MIC against MRSA ([4]; ATCC 43300, 18 h) | HEK293 cells MIC ([5]; 24 h) | RBC hemolysis MIC [6] | Antimicrobial activity [8] | Toxicity [9] | Thermal stability [10] | other results |
| --- | --- | --- | --- | --- | --- | --- | --- | --- | --- | --- | --- | --- | --- | --- | --- | --- | --- | --- |
| CC1(C)S[C@@H]2[C@H](NC(=O)[C@H](N)c3ccccc3)C(=O)N2[C@H]1C(=O)O [AMP, ampicillin, reference compound] | > 32 | 8 | > 32 | 32 | > 32 µg/mL | > 32 | – | – | – | – | – | – | – | – | – | – | – | MIC [1]: > 32 µg/mL; MIC [2]: 8 µg/mL; MIC [3]: > 32 µg/mL; MIC ([4]; 18 h): 32 µg/mL |
| CC[C@H](C)[C@H](N)C(=O)N[C@@H](CC(C)C)C(=O)N1CCC[C@H]1C(=O)N[C@@H](Cc1c[nH]c2ccccc12)C(=O)N[C@@H](CCCCN)C(=O)N[C@@H](Cc1c[nH]c2ccccc12)C(=O)N1CCC[C@H]1C(=O)N[C@@H](Cc1c[nH]c2ccccc12)C(=O)N[C@@H](Cc1c[nH]c2ccccc12)C(=O)N1CCC[C@H]1C(=O)N[C@@H](Cc1c[nH]c2ccccc12)C(=O)N[C@@H](CCCN=C(N)N)C(=O)N[C@@H](CCCN=C(N)N)C(N)=O [Indolicidin, reference compound] | – | – | – | – | – | – | – | – | – | – | – | – | – | – | – | – | – | RBC hemolysis MIC ([6]; fresh human RBCs, 1 h, 37 °C): >32 µg/mL |
| N=C(N)NCCC[C@H](NC(=O)[C@H](Cc1c[nH]c2ccccc12)NC(=O)[C@H](CCCNC(=N)N)NC(=O)[C@H](Cc1c[nH]c2ccccc12)NC(=O)[C@H](CCCNC(=N)N)NC(=O)[C@H](Cc1c[nH]c2ccccc12)NC(=O)[C@H](CCCNC(=N)N)NC(=O)[C@H](Cc1c[nH]c2ccccc12)NC(=O)[C@H](CCCNC(=N)N)NC(=O)[C@H](Cc1c[nH]c2ccccc12)NC(=O)[C@@H](N)CCCNC(=N)N)C(=O)N[C@@H](Cc1c[nH]c2ccccc12)C(N)=O [RW6] | > 32 | <= 0.25 | > 32 | <= 0.25 | > 32 µg/mL | <= 0.25 | >32 µg/mL | ≤0.25 µg/mL | >32 µg/mL | > 32 | >32 µg/mL | ≤0.25 µg/mL | >32 µg/mL | ≤0.25 µg/mL | High | Moderate | High | – |
| CN[C@H](CC(C)C)C(=O)N[C@H]1C(=O)N[C@@H](CC(N)=O)C(=O)N[C@H]2C(=O)N[C@H]3C(=O)N[C@H](C(=O)N[C@H](C(=O)O)c4cc(O)cc(O)c4-c4cc3ccc4O)[C@H](O)c3ccc(c(Cl)c3)Oc3cc2cc(c3O[C@@H]2O[C@H](CO)[C@@H](O)[C@H](O)[C@H]2O[C@H]2C[C@](C)(N)[C@H](O)[C@H](C)O2)Oc2ccc(cc2Cl)[C@H]1O [VAN, vancomycin, reference compound] | > 32 | > 32 | > 32 | <= 0.25 | – | – | – | – | – | > 32 | – | – | – | – | – | – | – | MIC [1]: > 32 µg/mL; MIC [2]: > 32 µg/mL; MIC ([7]; Klebsiella pneumoniae, ATCC700603, 18 h, read-out: MIC against Kp): > 32 µg/mL; MIC [3]: > 32 µg/mL; MIC ([4]; 18 h): ≤ 0.25 µg/mL; HEK293 cytotoxic concentration ([5]; supplement Table 1S, Hk = HEK293 cytotoxicity, 24 h, resazurin, unit not given (main-text tables: μg/mL), capital 95 mg, minor letter 5 mg): > 32 µg/mL; MIC, Hm (Table 1S) ([6]; supplement Table 1S, Hm = human RBC hemolysis, 1 h, 37 °C, unit not given (main-text tables: μg/mL), capital 95 mg, minor letter 5 mg, in µg/mL): 28.69 |
| RWRWPRWRWPRWRW-NH2 [RW6-2P] | 2 | 16 | <= 0.25 | <= 0.25 | > 32 µg/mL | > 32 | 2 µg/mL | 16 µg/mL | >32 µg/mL | > 32 | ≤0.25 µg/mL | ≤0.25 µg/mL | >32 µg/mL | >32 µg/mL | – | – | – | MIC against MRSA [4, 11]: ≤ 0.25 µg/mL |
| RWRWRWRW-NH2 [RW4] | > 32 | > 32 | > 32 | 8 | > 32 µg/mL | > 32 | >32 µg/mL | – | >32 µg/mL | > 32 | >32 µg/mL | 8 µg/mL | >32 µg/mL | >32 µg/mL | Moderate | Low | Low | – |
| RWRWRWRWRWRWRWRW-NH2 [RW8] | 32 | 32 | > 32 | 2 | > 32 µg/mL | 0.4523 | 32 µg/mL | 32 µg/mL | >32 µg/mL | > 32 | >32 µg/mL | 2 µg/mL | >32 µg/mL | 0.4523 µg/mL | High (Gram+), Moderate (Gram−) | Moderate | High | – |
| penicillin [reference compound] | > 32 | 32 | > 32 | 8 | > 32 µg/mL | > 32 | – | – | – | – | – | – | – | – | – | – | – | MIC against Ab ([1]; A. baumannii ATCC 19606, CAMHB, 5 × 10^5 CFU/mL, 37 °C, 18 h, OD600, mixtures: capital letter component 95 mg, minor letter component 5 mg): >32 µg/mL; MIC against E. coli ([2]; E. coli ATCC 25922, CAMHB, 5 × 10^5 CFU/mL, 37 °C, 18 h, OD600, mixtures: capital letter component 95 mg, minor letter component 5 mg): 32 µg/mL; MIC against Pa ([3]; P. aeruginosa ATCC 27853, CAMHB, 5 × 10^5 CFU/mL, 37 °C, 18 h, OD600, mixtures: capital letter component 95 mg, minor letter component 5 mg): >32 µg/mL; MIC against MRSA [4, 11]: 8 µg/mL |
